From patent US9446019B2, “Sparstolonin B based pharmaceutical agent for neuroblastoma treatment” (University of South Carolina, priority 2013, dated 2016)

Legend:
[1] = tested on: human neuroblastoma cell lines (SH-SY5Y, SKNF-1, NGP, IMR-32 and SK-N-BE(2) cells); test: MTT cell viability assay; format: cell-based
Text: Human neuroblastoma cell lines (SH-SY5Y, IMR-32, SK-N-BE(2) and SKNF-1 cells) were obtained from The American Type Culture Collection (ATCC; Manassas, Va.), and NGP cells were kind gift from Garrett M. Brodeur (The Children's Hospital of Philadelphia, Philadelphia, Pa.). All cell lines were maintained in complete Dulbecco's Modified Eagle's Medium (DMEM) supplemented with 10% fetal bovine serum (FBS; Atlanta Biologicals, Lawrenceville, Ga.) and 1× antibiotic-antimycotic solution (containing 100 U/ml penicillin, 100 μg/ml streptomycin and 0.25 μg/ml amphotericin B), and grown at 37° C. in a humidified incubator with 5% CO2. Stock solution of SsnB was prepared in dimethyl sulfoxide (DMSO). Cells treated with different concentrations of SsnB in DMEM with 10% FBS were grown for subsequent days. Cells treated with equal volume of DMSO were used as control.
The viability of SsnB-treated cells was determined by MTT assay following manufacturer's instructions (Roche diagnostics corporation, Indianapolis, Ind.). Briefly, cells (1×10^4 cells/well) grown in 96-well cell culture plate were incubated with or without SsnB in 100 μl of complete culture medium with 10% FBS. After treatments, cells were incubated with 10 μl of MTT reagent for 4 h and then incubated overnight in solubilization buffer (100 μl) at 37° C. Absorbance of the formazan product was read at 575 nm in spectramax spectrophotometer (Molecular Devices, Sunnyvale, Calif.). A reference wavelength of 690 nm was used to detect background. The measured absorption directly correlated with the number of viable cells in culture. The experiments were performed in triplicate and repeated at least three times.
MTT assay was carried out to examine the effects of SsnB on viability of all the above listed neuroblastoma cells. After 2 days (SH-SY5Y and IMR-32), 3 days (NGP cells) or 4 days (SKNF-1 and SK-N-BE(2) cells) treatment with SsnB (1, 5, 10 and 20 μM), MTT cell viability assays were performed.

SK-N-BE(2) cells = test: Cell cycle analysis by flow cytometry (propidium iodide); format: cell-based, human; conditions: SsnB 10 μM, 4 days; control=22.63%
Method: (§1) The cell cycle progression was determined by flow cytometer analysis. Neuroblastoma cells were treated with SsnB or DMSO in DMEM with 10% FBS. Cells were collected after trypsinization with trypsin-EDTA solution (Atlanta Biologicals) and washed with 1× phosphate buffered saline (PBS). Approximately 1×10^6 cells were suspended in 300 μl of ice-cold 1×PBS, fixed by adding 700 μl of chilled absolute ethanol (to make final ethanol concentration 70%) drop wise and incubated for overnight at −20° C. Cells were pelleted at 1000×rpm for 5 min at 4° C., washed with 1×PBS for 3 times and stained with propidium iodide (Sigma-Aldrich, St. Louis, Mo.) by adding 1 ml of propidium iodide staining solution (containing 20 μg/ml propidium iodide and 10 μg/ml DNase-free RNase A in 0.1% Triton X-100/PBS) for 1 h on ice in dark. Samples were subjected to fluorescence-activated cell sorting analyses utilizing Beckman Coulter flow cytometer (Beckman Coulter, Indianapolis, Ind.). A minimum of 10,000 events were analyzed in each experiment.
(§2) To test whether SsnB-induced cell growth inhibition occurs through cell cycle arrest, cell cycle distribution was analyzed by flow cytometry after DNA staining with propidium iodide.

NGP cells = test: as above; format: cell-based, human; conditions: SsnB 10 μM, 3 days; control=17.87%
Method: as §1, §2

SKNF-1 cells = test: as above; format: cell-based, human; conditions: SsnB 10 μM, 4 days; control=14.53%
Method: as §1, §2

IMR-32 cells = test: as above; format: cell-based, human; conditions: SsnB 10 μM, 2 days; control=19.25%
Method: as §1, §2

SH-SY5Y cells = test: as above; format: cell-based, human; conditions: SsnB 10 μM, 2 days; control=14.33%
Method: as §1, §2

[2] = Homo sapiens, MTT, 2 days (SH-SY5Y, IMR-32), 3 days (NGP), 4 days (SKNF-1, SK-N-BE(2)), range over the cell lines

O=c1occ2c3c(ccc(O)c13)Oc1ccc(O)cc1-2 [SsnB, 8,5′-dihydroxy-4-phenyl-5,2′-oxidoisocoumarin]
IC20 [1, 2]: 6 to 8 µM | IC50 [1, 2]: 10 to 12 µM | sensitivity towards SsnB treatment ([1]; NGP cell): moderately sensitive | sensitivity towards SsnB treatment ([1]; SH-SY5Y and IMR-32 cells): most sensitive | sensitivity towards SsnB treatment ([1]; SKNF-1 and SK-N-BE(2) cell lines): least sensitive | cell survival vs DMSO ([1]; SsnB 1 μM or 5 μM, p>0.05): No significant difference in cell survival | neuroblastoma cell death ([1]; SsnB 10 μM alone, MTT, range over cell lines (FIG. 5A)): 40-60% | cell viability vs DMSO ([1]; SsnB at and above 10 μM, p<0.05): significantly reduced the viability | G2/M phase cells (SK-N-BE(2) cells): 27.15% | G2/M phase cells (NGP cells): 26.98% | G2/M phase cells (SKNF-1 cells): 20.91% | G2/M phase cells (IMR-32 cells): 23.45% | G2/M phase cells (SH-SY5Y cells): 23.98%
